Laboratory results: patent publication US10253081B2, “Glucagon analogues” (Zealand Pharma A/S, priority 2012, dated 2019)
*1 amine or outer side, *2 acyl side, *3 side chain or, on linkers, in order; H or OH if unused. Where a SMILES comes first, the peptide text is derived from it. Side-chain parts run from the residue outwards. [ ]: non-standard residue; d: D form. The star is where a group is joined. γGlu = O=C(O)[C@H](CCC(=O)[*:2])N[*:1]; Palmitoyl = CCCCCCCCCCCCCCCC(=O)*; Aib = CC(C)(N)C(=O)O

How the values were obtained:
[1] = biological target: T1, endogenous GLP-1 receptors (Mus musculus, UniProt O35659); assay: Agonistic activity on endogenous GLP-1 receptor (cAMP, murine insulinoma cell line); assay type: cell-based; conditions: intracellular cAMP, 15 minutes at 26° C.; read-out: EC50 GLP-1R (murine insulinoma cells)
T1 construct: Agonistic activity of the test compounds on endogenous GLP-1 receptors; endogenous in cells
T1 sequence (O35659 22-463): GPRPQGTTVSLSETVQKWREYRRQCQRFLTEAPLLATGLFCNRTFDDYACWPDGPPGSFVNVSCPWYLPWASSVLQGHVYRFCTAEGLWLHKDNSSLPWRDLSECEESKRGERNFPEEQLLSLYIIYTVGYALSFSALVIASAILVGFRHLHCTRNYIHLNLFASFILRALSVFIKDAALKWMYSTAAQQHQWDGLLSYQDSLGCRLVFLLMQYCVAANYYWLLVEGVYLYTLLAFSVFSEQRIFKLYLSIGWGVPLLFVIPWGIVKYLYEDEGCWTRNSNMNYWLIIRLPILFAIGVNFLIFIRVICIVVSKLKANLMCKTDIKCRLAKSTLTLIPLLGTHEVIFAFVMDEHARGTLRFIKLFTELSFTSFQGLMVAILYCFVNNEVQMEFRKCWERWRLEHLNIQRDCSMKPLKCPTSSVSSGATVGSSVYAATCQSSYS
In short: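 Murine insulinoma cells were exposed 15 min at 26° C in KRBH with 0.1% DMSO to compound or GLP-1 ([…]), then cAMP was measured by AlphaScreen against a standard curve, in quadruplicate. pEC50 came from curve fits; % CTL was normalised to the maximal GLP-1 cAMP response.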

[2] = biological target: T2, human glucagon receptor (Glucagon-R) (Homo sapiens, UniProt P47871); assay: Glucagon receptor efficacy assay (cAMP AlphaScreen, CHO cells); assay type: cell-based; conditions: Table 1A; CHO cells expressing human Glucagon-R, cAMP; read-out: EC50 hGCGR CHO-K1
T2 construct: expressed in transfected cells
T2 sequence (P47871 26-477): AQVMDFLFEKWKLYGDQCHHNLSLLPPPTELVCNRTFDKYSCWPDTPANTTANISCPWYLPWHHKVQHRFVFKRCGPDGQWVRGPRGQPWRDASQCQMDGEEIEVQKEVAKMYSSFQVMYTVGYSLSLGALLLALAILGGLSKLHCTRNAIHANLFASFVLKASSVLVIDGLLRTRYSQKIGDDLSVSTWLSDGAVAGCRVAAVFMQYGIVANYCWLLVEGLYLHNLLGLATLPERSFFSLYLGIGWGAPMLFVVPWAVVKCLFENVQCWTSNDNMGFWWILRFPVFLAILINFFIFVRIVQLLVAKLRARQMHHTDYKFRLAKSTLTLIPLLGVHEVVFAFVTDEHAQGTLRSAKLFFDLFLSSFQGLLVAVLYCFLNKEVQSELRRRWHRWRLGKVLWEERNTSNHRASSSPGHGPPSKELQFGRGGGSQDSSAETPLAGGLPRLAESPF
In short: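 Stably transfected CHO clones expressing human GLP-1R or glucagon receptor were treated with increasing peptide concentrations for 15 min at room temperature in KRBH containing 0.1 mM IBMX. After lysis, cAMP was quantified by AlphaScreen; EC50 and efficacy relative to GLP-1 or glucagon reference came from curve fitting.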

| SMILES | EC50 [1] | EC50 [2] |
| --- | --- | --- |
| CCCCCCCCCCCCCCCC(=O)N[C@@H](CCC(=O)NCCCC[C@H](NC(=O)[C@H](CCC(=O)O)NC(=O)[C@H](CC(=O)O)NC(=O)[C@H](CC(C)C)NC(=O)[C@H](Cc1ccc(O)cc1)NC(=O)[C@H](CCCCN)NC(=O)[C@H](CO)NC(=O)[C@H](Cc1ccc(O)cc1)NC(=O)[C@H](CC(=O)O)NC(=O)[C@H](CO)NC(=O)[C@@H](NC(=O)[C@H](Cc1ccccc1)NC(=O)[C@@H](NC(=O)CNC(=O)[C@H](CCC(N)=O)NC(=O)C(C)(C)NC(=O)[C@@H](N)Cc1c[nH]cn1)[C@@H](C)O)[C@@H](C)O)C(=O)N[C@@H](C)C(=O)N[C@@H](C)C(=O)N[C@@H](CCCCN)C(=O)N[C@@H](CC(=O)O)C(=O)N[C@@H](Cc1ccccc1)C(=O)N[C@H](C(=O)N[C@@H](CCC(=O)O)C(=O)N[C@@H](Cc1c[nH]c2ccccc12)C(=O)N[C@@H](CC(C)C)C(=O)N[C@@H](CC(C)C)C(=O)N[C@@H](CO)C(=O)N[C@@H](C)C(N)=O)[C@@H](C)CC)C(=O)O [Compound 4, H-H-Aib-QGTFTSDYSKYLDE-K(Hexadecanoyl-isoGlu)-AAKDFIEWLLSA-NH2] (H-H[Aib]QGTFTSDYSKYLDEK([γGlu-Palmitoyl])AAKDFIEWLLSA-NH2) | 0.95 nM | 1.56 nM |
| CCCCCCCCCCCCCCCC(=O)N[C@@H](CCC(=O)NCCCC[C@H](NC(=O)[C@H](CCC(=O)O)NC(=O)[C@H](CC(=O)O)NC(=O)[C@H](CC(C)C)NC(=O)[C@H](Cc1ccc(O)cc1)NC(=O)[C@H](CCCCN)NC(=O)[C@H](CO)NC(=O)[C@H](Cc1ccc(O)cc1)NC(=O)[C@H](CC(=O)O)NC(=O)[C@H](CO)NC(=O)[C@@H](NC(=O)[C@H](Cc1ccccc1)NC(=O)[C@@H](NC(=O)CNC(=O)[C@H](CCC(N)=O)NC(=O)[C@H](CO)NC(=O)[C@@H](N)Cc1c[nH]cn1)[C@@H](C)O)[C@@H](C)O)C(=O)N[C@@H](C)C(=O)N[C@@H](C)C(=O)N[C@@H](Cc1c[nH]cn1)C(=O)N[C@@H](CCC(=O)O)C(=O)N[C@@H](Cc1ccccc1)C(=O)N[C@H](C(=O)N[C@@H](CCC(=O)O)C(=O)N[C@@H](Cc1c[nH]c2ccccc12)C(=O)N[C@@H](CC(C)C)C(=O)N[C@@H](CCC(=O)O)C(=O)N[C@@H](CO)C(=O)N[C@@H](C)C(N)=O)C(C)C)C(=O)O [Compound 10, H-HSQGTFTSDYSKYLDE-K(Hexadecanoyl-isoGlu)-AAHEFVEWLESA-NH2] (H-HSQGTFTSDYSKYLDEK([γGlu-Palmitoyl])AAHEFVEWLESA-NH2) | 0.33 nM | 0.23 nM |
| CCCCCCCCCCCCCCCC(=O)N[C@@H](CCC(=O)NCCCC[C@H](NC(=O)[C@H](CO)NC(=O)[C@H](CC(=O)O)NC(=O)[C@H](CC(C)C)NC(=O)[C@H](Cc1ccc(O)cc1)NC(=O)[C@H](CCCCN)NC(=O)[C@H](CO)NC(=O)[C@H](Cc1ccc(O)cc1)NC(=O)[C@H](CC(=O)O)NC(=O)[C@H](CO)NC(=O)[C@@H](NC(=O)[C@H](Cc1ccccc1)NC(=O)[C@@H](NC(=O)CNC(=O)[C@H](CCC(N)=O)NC(=O)[C@H](CO)NC(=O)[C@@H](N)Cc1c[nH]cn1)[C@@H](C)O)[C@@H](C)O)C(=O)N[C@@H](C)C(=O)N[C@@H](C)C(=O)N[C@@H](Cc1c[nH]cn1)C(=O)N[C@@H](CC(=O)O)C(=O)N[C@@H](Cc1ccccc1)C(=O)N[C@H](C(=O)N[C@@H](CCC(=O)O)C(=O)N[C@@H](Cc1c[nH]c2ccccc12)C(=O)N[C@@H](CC(C)C)C(=O)N[C@@H](CC(C)C)C(=O)N[C@@H](CO)C(N)=O)C(C)C)C(=O)O [Compound 8, H-HSQGTFTSDYSKYLDS-K(Hexadecanoyl-isoGlu)-AAHDFVEWLLS-NH2] (H-HSQGTFTSDYSKYLDSK([γGlu-Palmitoyl])AAHDFVEWLLS-NH2) | 0.95 nM | 0.29 nM |
| CCCCCCCCCCCCCCCC(=O)N[C@@H](CCC(=O)NCCCC[C@H](NC(=O)[C@H](CO)NC(=O)[C@H](CC(=O)O)NC(=O)[C@H](CC(C)C)NC(=O)[C@H](Cc1ccc(O)cc1)NC(=O)[C@H](CCCNC(=N)N)NC(=O)[C@H](CO)NC(=O)[C@H](Cc1ccc(O)cc1)NC(=O)[C@H](CC(=O)O)NC(=O)[C@H](CO)NC(=O)[C@@H](NC(=O)[C@H](Cc1ccccc1)NC(=O)[C@@H](NC(=O)CNC(=O)[C@H](CCC(N)=O)NC(=O)[C@H](CO)NC(=O)[C@@H](N)Cc1c[nH]cn1)[C@@H](C)O)[C@@H](C)O)C(=O)N[C@@H](C)C(=O)N[C@@H](C)C(=O)N[C@@H](CCC(=O)O)C(=O)N[C@@H](CC(=O)O)C(=O)N[C@@H](Cc1ccccc1)C(=O)N[C@H](C(=O)N[C@@H](CCC(=O)O)C(=O)N[C@@H](Cc1c[nH]c2ccccc12)C(=O)N[C@@H](CC(C)C)C(=O)N[C@@H](CC(C)C)C(=O)N[C@@H](CCCNC(=N)N)C(=O)N[C@@H](C)C(N)=O)C(C)C)C(=O)O [Compound 6, H-HSQGTFTSDYSRYLDS-K(Hexadecanoyl-isoGlu)-AAEDFVEWLLRA-NH2] (H-HSQGTFTSDYSRYLDSK([γGlu-Palmitoyl])AAEDFVEWLLRA-NH2) | 1.14 nM | 0.46 nM |
| CCCCCCCCCCCCCCCC(=O)N[C@@H](CCC(=O)NCCCC[C@H](NC(=O)[C@H](CO)NC(=O)[C@H](CC(=O)O)NC(=O)[C@H](CC(C)C)NC(=O)[C@H](Cc1ccc(O)cc1)NC(=O)[C@H](CCCCN)NC(=O)[C@H](CO)NC(=O)[C@H](Cc1ccc(O)cc1)NC(=O)[C@H](CC(=O)O)NC(=O)[C@H](CO)NC(=O)[C@@H](NC(=O)[C@H](Cc1ccccc1)NC(=O)[C@@H](NC(=O)CNC(=O)[C@H](CCC(N)=O)NC(=O)C(C)(C)NC(=O)[C@@H](N)Cc1c[nH]cn1)[C@@H](C)O)[C@@H](C)O)C(=O)N[C@@H](C)C(=O)N[C@@H](C)C(=O)N[C@@H](Cc1c[nH]cn1)C(=O)N[C@@H](CC(=O)O)C(=O)N[C@@H](Cc1ccccc1)C(=O)N[C@H](C(=O)N[C@@H](CCC(=O)O)C(=O)N[C@@H](Cc1c[nH]c2ccccc12)C(=O)N[C@@H](CC(C)C)C(=O)N[C@@H](CCC(=O)O)C(=O)N[C@@H](CO)C(=O)N[C@@H](C)C(N)=O)C(C)C)C(=O)O [Compound 5, H-H-Aib-QGTFTSDYSKYLDS-K(Hexadecanoyl-isoGlu)-AAHDFVEWLESA-NH2] (H-H[Aib]QGTFTSDYSKYLDSK([γGlu-Palmitoyl])AAHDFVEWLESA-NH2) | 0.54 nM | 0.46 nM |
| CCCCCCCCCCCCCCCC(=O)N[C@@H](CCC(=O)NCCCC[C@H](NC(=O)[C@H](CO)NC(=O)[C@H](CC(=O)O)NC(=O)[C@H](CC(C)C)NC(=O)[C@H](Cc1ccc(O)cc1)NC(=O)[C@H](CCCCN)NC(=O)[C@H](CO)NC(=O)[C@H](Cc1ccc(O)cc1)NC(=O)[C@H](CC(=O)O)NC(=O)[C@H](CO)NC(=O)[C@@H](NC(=O)[C@H](Cc1ccccc1)NC(=O)[C@@H](NC(=O)CNC(=O)[C@H](CCC(N)=O)NC(=O)[C@H](CO)NC(=O)[C@@H](N)Cc1c[nH]cn1)[C@@H](C)O)[C@@H](C)O)C(=O)N[C@@H](C)C(=O)N[C@@H](C)C(=O)N[C@@H](Cc1c[nH]cn1)C(=O)N[C@@H](CC(=O)O)C(=O)N[C@@H](Cc1ccccc1)C(=O)N[C@H](C(=O)N[C@@H](CCC(=O)O)C(=O)N[C@@H](Cc1c[nH]c2ccccc12)C(=O)N[C@@H](CC(C)C)C(=O)N[C@@H](CC(C)C)C(=O)N[C@@H](CCCNC(=N)N)C(=O)O)C(C)C)C(=O)O [Compound 9, H-HSQGTFTSDYSKYLDS-K(Hexadecanoyl-isoGlu)-AAHDFVEWLLR-OH] (H-HSQGTFTSDYSKYLDSK([γGlu-Palmitoyl])AAHDFVEWLLR-OH) | 1.02 nM | 0.25 nM |
| CCCCCCCCCCCCCCCC(=O)N[C@@H](CCC(=O)NCCCC[C@H](NC(=O)[C@H](CO)NC(=O)[C@H](CC(=O)O)NC(=O)[C@H](CC(C)C)NC(=O)[C@H](Cc1ccc(O)cc1)NC(=O)[C@H](CCCNC(=N)N)NC(=O)[C@H](CO)NC(=O)[C@H](Cc1ccc(O)cc1)NC(=O)[C@H](CC(=O)O)NC(=O)[C@H](CO)NC(=O)[C@@H](NC(=O)[C@H](Cc1ccccc1)NC(=O)[C@@H](NC(=O)CNC(=O)[C@H](CCC(N)=O)NC(=O)[C@H](CO)NC(=O)[C@@H](N)Cc1c[nH]cn1)[C@@H](C)O)[C@@H](C)O)C(=O)N[C@@H](C)C(=O)N[C@@H](C)C(=O)N[C@@H](Cc1c[nH]cn1)C(=O)N[C@@H](CC(=O)O)C(=O)N[C@@H](Cc1ccccc1)C(=O)N[C@H](C(=O)N[C@@H](CCC(=O)O)C(=O)N[C@@H](Cc1c[nH]c2ccccc12)C(=O)N[C@@H](CC(C)C)C(=O)N[C@@H](CC(C)C)C(=O)N[C@@H](CO)C(=O)N[C@@H](C)C(N)=O)C(C)C)C(=O)O [Compound 12, H-HSQGTFTSDYSRYLDS-K(Hexadecanoyl-isoGlu)-AAHDFVEWLLSA-NH2] (H-HSQGTFTSDYSRYLDSK([γGlu-Palmitoyl])AAHDFVEWLLSA-NH2) | 1.62 nM | 0.43 nM |
